Values of other authors, collected in US8759329B2 (Unimed Pharmaceuticals, LLC, priority 2005, dated 2014).

Experiments:
[1] = biological target: T1, protein (SHBG, albumin) (Homo sapiens, UniProt P04278); conditions: in men
T1 sequence (P04278 30-402): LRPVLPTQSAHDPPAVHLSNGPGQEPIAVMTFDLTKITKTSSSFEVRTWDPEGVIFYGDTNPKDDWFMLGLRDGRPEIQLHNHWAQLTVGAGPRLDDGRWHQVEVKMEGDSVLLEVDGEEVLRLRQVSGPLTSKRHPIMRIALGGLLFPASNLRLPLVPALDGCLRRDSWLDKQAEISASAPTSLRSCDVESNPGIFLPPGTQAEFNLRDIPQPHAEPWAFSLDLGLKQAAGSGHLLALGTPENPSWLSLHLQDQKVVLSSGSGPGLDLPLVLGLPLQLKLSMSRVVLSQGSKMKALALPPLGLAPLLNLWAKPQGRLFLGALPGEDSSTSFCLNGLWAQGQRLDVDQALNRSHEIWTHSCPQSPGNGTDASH

[2] = system: protein (SHBG, albumin); conditions: circulating testosterone
[3] = biological target: protein (SHBG, albumin) (Homo sapiens, UniProt P02768); conditions: in men
Chain of protein (SHBG, albumin) (Homo sapiens, UniProt P02768) (P02768 25-609): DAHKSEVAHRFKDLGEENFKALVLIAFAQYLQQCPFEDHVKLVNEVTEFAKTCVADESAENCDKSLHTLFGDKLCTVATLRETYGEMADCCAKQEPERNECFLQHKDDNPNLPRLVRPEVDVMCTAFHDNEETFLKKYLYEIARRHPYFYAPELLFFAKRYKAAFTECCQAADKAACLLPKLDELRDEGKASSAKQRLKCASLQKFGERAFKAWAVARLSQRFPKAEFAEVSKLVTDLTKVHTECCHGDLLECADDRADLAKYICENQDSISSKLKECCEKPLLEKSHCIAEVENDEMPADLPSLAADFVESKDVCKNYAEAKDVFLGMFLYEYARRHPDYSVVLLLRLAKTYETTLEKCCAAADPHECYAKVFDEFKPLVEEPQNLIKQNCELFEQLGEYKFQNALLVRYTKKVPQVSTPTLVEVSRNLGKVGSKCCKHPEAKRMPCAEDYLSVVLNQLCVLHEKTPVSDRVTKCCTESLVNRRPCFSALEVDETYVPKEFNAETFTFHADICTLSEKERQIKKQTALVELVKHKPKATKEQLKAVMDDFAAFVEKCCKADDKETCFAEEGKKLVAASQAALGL

Question: With C[C@]12CC[C@H]3[C@@H](CCC4=CC(=O)CC[C@@]43C)[C@@H]1CC[C@@H]2O [testosterone] as the molecule, how does the “share of the binding to SHBG” value [1] read?
Answer: approximately 40%

Question: And the “bound to protein in the blood” value [2]?
Answer: 98%

Question: What about the “share bound weakly to albumin” value [3] of the same molecule?
Answer: 60%
